Laboratory results published in patent US20210045385A1, “PYRIDAZINONE-SUBSTITUTED KETOXIMES AS HERBICIDES” (FMC Corporation, priority 2018, published 2021).

What was measured:
Assay type in all cases: in vivo
[1] = system: ragweed (common ragweed, Ambrosia elatior); experiment: Test A preemergence, visual plant response rating; settings: for Ragweed plant response rating: 125 g ai/ha, preemergence, 0 to 100 scale, 0 no effect, 100 complete control; for Ragweed plant response rating (0 to 100 scale): 500 g ai/ha Preemergence, approx. 10 days
In short: (§1)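 Formulated in a non-phytotoxic solvent mixture including surfactant, each test chemical was sprayed onto the soil surface after sowing, or onto seedlings 2 to 10 cm high. Roughly 10 days later, plants were compared with untreated controls and rated for injury from 0 (no effect) to 100 (complete control).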

[2] = system: pigweed (Amaranthus retroflexus); experiment: Test A preemergence, visual plant response rating; settings: for Pigweed plant response rating: 125 g ai/ha, preemergence, 0 to 100 scale, 0 no effect, 100 complete control; for Pigweed plant response rating (0 to 100 scale): 500 g ai/ha Preemergence, approx. 10 days
In short: as §1

[3] = system: kochia (Kochia scoparia); experiment: Test A preemergence, visual plant response rating; settings: for Kochia plant response rating: 125 g ai/ha, preemergence, 0 to 100 scale, 0 no effect, 100 complete control; for Kochia plant response rating (0 to 100 scale): 500 g ai/ha Preemergence, approx. 10 days
In short: as §1

[4] = system: foxtail, giant (giant foxtail, Setaria faberii); experiment: Test A preemergence, visual plant response rating; settings: for Foxtail, Giant plant response rating: 125 g ai/ha, preemergence, 0 to 100 scale, 0 no effect, 100 complete control; for Foxtail, Giant plant response rating (0 to 100 scale): 500 g ai/ha Preemergence, approx. 10 days
In short: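 Ratings 0–100 (100 = complete control), visual, vs untreated controls at ~10 days. Application pre- or postemergence; solvent mixture with surfactant; loam/sand medium.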

[5] = system: Italian ryegrass (Lolium multiflorum); experiment: Test A preemergence, visual plant response rating; settings: for Ryegrass, Italian plant response rating: 125 g ai/ha, preemergence, 0 to 100 scale, 0 no effect, 100 complete control; for Ryegrass, Italian plant response rating (0 to 100 scale): 500 g ai/ha Preemergence, approx. 10 days
In short: as §1

[6] = system: barnyardgrass (Echinochloa crus-galli); experiment: Test A preemergence, visual plant response rating; settings: for Barnyardgrass plant response rating: 125 g ai/ha, preemergence, 0 to 100 scale, 0 no effect, 100 complete control; for Barnyardgrass plant response rating (0 to 100 scale): 500 g ai/ha Preemergence, approx. 10 days
In short: as §1

[7] = system: rice (Oryza sativa); experiment: Test B flooded paddy test, visual plant response rating; settings: 250 g ai/ha, Flood, applied to paddy water, 2-leaf stage, evaluated after 13 to 15 days
In short: (§2)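 Seedlings at 2 leaves; compound into paddy water (3 cm flood, maintained); 13–15 d greenhouse; visual score relative to controls.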

[8] = system: ducksalad (Heteranhera limosa); experiment: as above; settings: 250 g ai/ha, Flood, applied to paddy water, 2-leaf stage, evaluated after 13 to 15 days
In short: as §2

[9] = system: sedge, umbrella (small-flower umbrella sedge, Cyperus difformis); experiment: as above; settings: 250 g ai/ha, Flood, applied to paddy water, 2-leaf stage, evaluated after 13 to 15 days
In short: as §2

[10] = system: barnyardgrass (Echinochloa crus-galli); experiment: as above; settings: 250 g ai/ha, Flood, applied to paddy water, 2-leaf stage, evaluated after 13 to 15 days
In short: as §2

[11] = system: corn (Zea mays); experiment: Test A postemergence, visual plant response rating; settings: for Corn plant response rating (0 to 100 scale): 500 g ai/ha, postemergence, 0 is no effect, 100 is complete control; for Corn plant response rating: Postemergence, 125 g ai/ha, 0 to 100 scale (0 no effect, 100 complete control)
In short: as §1

[12] = system: ragweed (common ragweed, Ambrosia elatior); experiment: Test A postemergence, visual plant response rating; settings: for Ragweed plant response rating (0 to 100 scale): 500 g ai/ha, postemergence, 0 is no effect, 100 is complete control; for Ragweed plant response rating: Postemergence, 125 g ai/ha, 0 to 100 scale (0 no effect, 100 complete control)
In short: as §1

[13] = system: galium (catchweed bedstraw, Galium aparine); experiment: Test A postemergence, visual plant response rating; settings: for Galium plant response rating (0 to 100 scale): 500 g ai/ha, postemergence, 0 is no effect, 100 is complete control; for Galium plant response rating: Postemergence, 125 g ai/ha, 0 to 100 scale (0 no effect, 100 complete control)
In short: as §1

[14] = system: pigweed (Amaranthus retroflexus); experiment: Test A postemergence, visual plant response rating; settings: for Pigweed plant response rating (0 to 100 scale): 500 g ai/ha, postemergence, 0 is no effect, 100 is complete control; for Pigweed plant response rating: Postemergence, 125 g ai/ha, 0 to 100 scale (0 no effect, 100 complete control)
In short: as §1

[15] = system: kochia (Kochia scoparia); experiment: Test A postemergence, visual plant response rating; settings: for Kochia plant response rating (0 to 100 scale): 500 g ai/ha, postemergence, 0 is no effect, 100 is complete control; for Kochia plant response rating: Postemergence, 125 g ai/ha, 0 to 100 scale (0 no effect, 100 complete control)
In short: as §1

[16] = system: wheat (Triticum aestivum); experiment: Test A postemergence, visual plant response rating; settings: for Wheat plant response rating (0 to 100 scale): 500 g ai/ha, postemergence, 0 is no effect, 100 is complete control; for Wheat plant response rating: Postemergence, 125 g ai/ha, 0 to 100 scale (0 no effect, 100 complete control)
In short: as §1

[17] = system: foxtail, giant (giant foxtail, Setaria faberii); experiment: Test A postemergence, visual plant response rating; settings: for Foxtail, Giant plant response rating (0 to 100 scale): 500 g ai/ha, postemergence, 0 is no effect, 100 is complete control; for Foxtail, Giant plant response rating: Postemergence, 125 g ai/ha, 0 to 100 scale (0 no effect, 100 complete control)
In short: as §1

[18] = system: Italian ryegrass (Lolium multiflorum); experiment: Test A postemergence, visual plant response rating; settings: for Ryegrass, Italian plant response rating (0 to 100 scale): 500 g ai/ha, postemergence, 0 is no effect, 100 is complete control; for Ryegrass, Italian plant response rating: Postemergence, 125 g ai/ha, 0 to 100 scale (0 no effect, 100 complete control)
In short: as §1

[19] = system: barnyardgrass (Echinochloa crus-galli); experiment: Test A postemergence, visual plant response rating; settings: for Barnyardgrass plant response rating (0 to 100 scale): 500 g ai/ha, postemergence, 0 is no effect, 100 is complete control; for Barnyardgrass plant response rating: Postemergence, 125 g ai/ha, 0 to 100 scale (0 no effect, 100 complete control)
In short: as §1

[20] = system: blackgrass (Alopecurus myosuroides); experiment: Test A postemergence, visual plant response rating; settings: for Blackgrass plant response rating (0 to 100 scale): 500 g ai/ha, postemergence, 0 is no effect, 100 is complete control; for Blackgrass plant response rating: Postemergence, 125 g ai/ha, 0 to 100 scale (0 no effect, 100 complete control)
In short: as §1

Structure (SMILES)	Ragweed plant response rating [1]	Ragweed plant response rating (0 to 100 scale) [1]	Pigweed plant response rating [2]	Pigweed plant response rating (0 to 100 scale) [2]	Kochia plant response rating [3]	Kochia plant response rating (0 to 100 scale) [3]	Foxtail, Giant plant response rating [4]	Foxtail, Giant plant response rating (0 to 100 scale) [4]	Ryegrass, Italian plant response rating [5]	Ryegrass, Italian plant response rating (0 to 100 scale) [5]	Barnyardgrass plant response rating [6]	Barnyardgrass plant response rating (0 to 100 scale) [6]	Plant response rating, Rice (0 to 100 scale, 0 is no effect, 100 is complete control) [7]	Plant response rating, Ducksalad (0 to 100 scale, 0 is no effect, 100 is complete control) [8]	Plant response rating, Sedge, Umbrella (0 to 100 scale, 0 is no effect, 100 is complete control) [9]	Plant response rating, Barnyardgrass (0 to 100 scale, 0 is no effect, 100 is complete control) [10]	Corn plant response rating (0 to 100 scale) [11]	Corn plant response rating [11]	Ragweed plant response rating (0 to 100 scale) [12]	Ragweed plant response rating [12]	also measured
CO/N=C(\c1c(C)cccc1F)c1c(O)c(C)nn(C)c1=O [Compound 39]	0	30	0	0	0	0	0	0	0	0	0	0	0	0	0	0	20	0	60	0	Galium plant response rating (0 to 100 scale) [13]: 70; Galium plant response rating [13]: 40; Pigweed plant response rating (0 to 100 scale) [14]: 10; Pigweed plant response rating [14]: 0; Kochia plant response rating (0 to 100 scale) [15]: 0; Kochia plant response rating [15]: 0; Wheat plant response rating (0 to 100 scale) [16]: 10; Wheat plant response rating [16]: 0; Foxtail, Giant plant response rating (0 to 100 scale) [17]: 0; Foxtail, Giant plant response rating [17]: 0; Ryegrass, Italian plant response rating (0 to 100 scale) [18]: 0; Ryegrass, Italian plant response rating [18]: 0; Barnyardgrass plant response rating (0 to 100 scale) [19]: 10; Barnyardgrass plant response rating [19]: 0; Blackgrass plant response rating (0 to 100 scale) [20]: 0; Blackgrass plant response rating [20]: 0
CON=C(c1c(O)c(C)nn(C)c1=O)c1ccc(Cl)c2ccccc12 [Compound 40]	40	80	30	60	0	10	50	90	20	60	30	60	0	0	0	0	10	0	80	70	Galium plant response rating (0 to 100 scale) [13]: 100; Galium plant response rating [13]: 70; Pigweed plant response rating (0 to 100 scale) [14]: 40; Pigweed plant response rating [14]: 10; Kochia plant response rating (0 to 100 scale) [15]: 40; Kochia plant response rating [15]: 10; Wheat plant response rating (0 to 100 scale) [16]: 50; Wheat plant response rating [16]: 20; Foxtail, Giant plant response rating (0 to 100 scale) [17]: 50; Foxtail, Giant plant response rating [17]: 10; Ryegrass, Italian plant response rating (0 to 100 scale) [18]: 90; Ryegrass, Italian plant response rating [18]: 50; Barnyardgrass plant response rating (0 to 100 scale) [19]: 30; Barnyardgrass plant response rating [19]: 30; Blackgrass plant response rating (0 to 100 scale) [20]: 80; Blackgrass plant response rating [20]: 70
